Measurements published in ChEMBL document CHEMBL1127385, “Synthesis and diuretic activity of alkyl- and arylguanidine analogs of N,N'-dicyclohexyl-4-morpholinecarboxamidine in rats and dogs” (J Med Chem, 1994).
Values belong to the compound of their own block, whether it stands above or below them.

Key:
[1] = system: Rattus norvegicus; assay: Total electrolytic excretion of sodium in urine of rats after peroral administration of 324 uM/Kg of drug; format: ADME, organism-based; conditions: in vivo, po
[2] = system: Rattus norvegicus; assay: Tested for the diuretic activity by measuring the urinary volume after peroral administering 97.1 uM/Kg of drug in rats; format: ADME, organism-based, Urine; conditions: in vivo, po
[3] = system: Rattus norvegicus; assay: Total electrolytic excretion of potassium in urine of rats after peroral administration of 32.4 uM/Kg of drug; format: ADME, organism-based; conditions: in vivo, po
[4] = system: Rattus norvegicus; assay: Ratio of Total electrolytic excretion of sodium and potassium in urine of rats after intravenous administration of 70.6 uM/Kg of drug; format: ADME, organism-based; conditions: in vivo
[5] = system: Rattus norvegicus; assay: Total electrolytic excretion of sodium in urine of rats after peroral administration of 97.1 uM/Kg of drug; format: ADME, organism-based; conditions: in vivo, po
[6] = system: Rattus norvegicus; assay: Total electrolytic excretion of chlorine in urine of rats after peroral administration of 32.4 uM/Kg of drug; format: ADME, organism-based; conditions: in vivo, po
[7] = system: Rattus norvegicus; assay: Total electrolytic excretion of sodium in urine of rats after peroral administration of 32.4 uM/Kg of drug; format: ADME, organism-based; conditions: in vivo, po
[8] = system: Rattus norvegicus; assay: Total electrolytic excretion of potassium in urine of rats after peroral administration of 97.1 uM/Kg of drug; format: ADME, organism-based; conditions: in vivo, po
[9] = system: Rattus norvegicus; assay: Tested for the diuretic activity by measuring the urinary volume after peroral administering 324 uM/Kg of drug in rats; format: ADME, organism-based, Urine; conditions: in vivo, po
[10] = system: Rattus norvegicus; assay: Total electrolytic excretion of chlorine in urine of rats after peroral administration of 324 uM/Kg of drug; format: ADME, organism-based; conditions: in vivo, po
[11] = system: Rattus norvegicus; assay: Total electrolytic excretion of chlorine in urine of rats after peroral administration of 97.1 uM/Kg of drug; format: ADME, organism-based; conditions: in vivo, po
[12] = system: Rattus norvegicus; assay: Ratio of Total electrolytic excretion of sodium and potassium in urine of rats after peroral administration of 324 uM/Kg of drug; format: ADME, organism-based; conditions: in vivo, po
[13] = system: Rattus norvegicus; assay: Tested for the diuretic activity by measuring the urinary volume after peroral administering 32.4 uM/Kg of drug in rats; format: ADME, organism-based, Urine; conditions: in vivo, po
[14] = system: Rattus norvegicus; assay: Ratio of Total electrolytic excretion of sodium and potassium in urine of rats after peroral administration of 97.1 uM/Kg of drug; format: ADME, organism-based; conditions: in vivo, po
[15] = system: Rattus norvegicus; assay: Ratio of Total electrolytic excretion of sodium and potassium in urine of rats after intravenous administration of 23.5 uM/Kg of drug; format: ADME, organism-based; conditions: in vivo
[16] = system: Rattus norvegicus; assay: Total electrolytic excretion of potassium in urine of rats after peroral administration of 324 uM/Kg of drug; format: ADME, organism-based; conditions: in vivo, po
[17] = system: Rattus norvegicus; assay: Ratio of Total electrolytic excretion of sodium and potassium in urine of rats after peroral administration of 32.4 uM/Kg of drug; format: ADME, organism-based; conditions: in vivo, po
[18] = system: Rattus norvegicus; assay: Total electrolytic excretion of potassium in urine of rats after peroral administration of 86.7 uM/Kg of drug; format: ADME, organism-based; conditions: in vivo, po
[19] = system: Rattus norvegicus; assay: Ratio of Total electrolytic excretion of sodium and potassium in urine of rats after intravenous administration of 52.4 uM/Kg of drug; format: ADME, organism-based; conditions: in vivo
[20] = system: Canis familiaris; assay: Total electrolytic excretion of potassium in urine of dogs after intravenous administration of 7.85 uM/Kg of drug; format: ADME, organism-based, Canis lupus familiaris; conditions: dog, in vivo
[21] = system: Rattus norvegicus; assay: Tested for the diuretic activity by measuring the urinary volume after peroral administering 289 uM/Kg of drug in rats; format: ADME, organism-based, Urine; conditions: in vivo, po
[22] = system: Canis familiaris; assay: Tested for the diuretic activity by measuring the urinary volume after intravenous administering 26.2 uM/Kg of drug in dogs; format: ADME, organism-based, Canis lupus familiaris, Urine; conditions: dog, in vivo
[23] = system: Rattus norvegicus; assay: Total electrolytic excretion of sodium in urine of rats after peroral administration of 289 uM/Kg of drug; format: ADME, organism-based; conditions: in vivo, po
[24] = system: Canis familiaris; assay: Total electrolytic excretion of sodium in urine of dogs after intravenous administration of 7.85 uM/Kg of drug; format: ADME, organism-based, Canis lupus familiaris; conditions: dog, in vivo
[25] = system: Rattus norvegicus; assay: Total electrolytic excretion of sodium in urine of rats after peroral administration of 28.9 uM/Kg of drug; format: ADME, organism-based; conditions: in vivo, po
[26] = system: Rattus norvegicus; assay: Total electrolytic excretion of chlorine in urine of rats after peroral administration of 86.7 uM/Kg of drug; format: ADME, organism-based; conditions: in vivo, po
[27] = system: Canis familiaris; assay: Total electrolytic excretion of chlorine in urine of dogs after intravenous administration of 7.85 uM/Kg of drug; format: ADME, organism-based, Canis lupus familiaris; conditions: dog, in vivo
[28] = system: Canis familiaris; assay: Tested for the diuretic activity by measuring the urinary volume after intravenous administering 52.4 uM/Kg of drug in dogs; format: ADME, organism-based, Canis lupus familiaris, Urine; conditions: dog, in vivo
[29] = system: Canis familiaris; assay: Total electrolytic excretion of chlorine in urine of dogs after intravenous administration of 26.2 uM/Kg of drug; format: ADME, organism-based, Canis lupus familiaris; conditions: dog, in vivo
[30] = system: Canis familiaris; assay: Tested for the diuretic activity by measuring the urinary volume after intravenous administering 7.85 uM/Kg of drug in dogs; format: ADME, organism-based, Canis lupus familiaris, Urine; conditions: dog, in vivo
[31] = system: Canis familiaris; assay: Total electrolytic excretion of chlorine in urine of dogs after intravenous administration of 52.4 uM/Kg of drug; format: ADME, organism-based, Canis lupus familiaris; conditions: dog, in vivo
[32] = system: Rattus norvegicus; assay: Ratio of Total electrolytic excretion of sodium and potassium in urine of rats after peroral administration of 289 uM/Kg of drug; format: ADME, organism-based; conditions: in vivo, po
[33] = system: Rattus norvegicus; assay: Total electrolytic excretion of chlorine in urine of rats after peroral administration of 289 uM/Kg of drug; format: ADME, organism-based; conditions: in vivo, po
[34] = system: Rattus norvegicus; assay: Ratio of Total electrolytic excretion of sodium and potassium in urine of rats after intravenous administration of 26.2 uM/Kg of drug; format: ADME, organism-based; conditions: in vivo
[35] = system: Canis familiaris; assay: Total electrolytic excretion of sodium in urine of dogs after intravenous administration of 26.2 uM/Kg of drug; format: ADME, organism-based, Canis lupus familiaris; conditions: dog, in vivo
[36] = system: Rattus norvegicus; assay: Total electrolytic excretion of chlorine in urine of rats after peroral administration of 28.9 uM/Kg of drug; format: ADME, organism-based; conditions: in vivo, po
[37] = system: Rattus norvegicus; assay: Tested for the diuretic activity by measuring the urinary volume after peroral administering 28.9 uM/Kg of drug in rats; format: ADME, organism-based, Urine; conditions: in vivo, po
[38] = system: Canis familiaris; assay: Total electrolytic excretion of sodium in urine of dogs after intravenous administration of 52.4 uM/Kg of drug; format: ADME, organism-based, Canis lupus familiaris; conditions: dog, in vivo
[39] = system: Rattus norvegicus; assay: Ratio of Total electrolytic excretion of sodium and potassium in urine of rats after peroral administration of 86.7 uM/Kg of drug; format: ADME, organism-based; conditions: in vivo, po
[40] = system: Rattus norvegicus; assay: Total electrolytic excretion of potassium in urine of rats after peroral administration of 289 uM/Kg of drug; format: ADME, organism-based; conditions: in vivo, po
[41] = system: Canis familiaris; assay: Total electrolytic excretion of potassium in urine of dogs after intravenous administration of 26.2 uM/Kg of drug; format: ADME, organism-based, Canis lupus familiaris; conditions: dog, in vivo
[42] = system: Rattus norvegicus; assay: Tested for the diuretic activity by measuring the urinary volume after peroral administering 86.7 uM/Kg of drug in rats; format: ADME, organism-based, Urine; conditions: in vivo, po
[43] = system: Rattus norvegicus; assay: Total electrolytic excretion of sodium in urine of rats after peroral administration of 86.7 uM/Kg of drug; format: ADME, organism-based; conditions: in vivo, po
[44] = system: Rattus norvegicus; assay: Ratio of Total electrolytic excretion of sodium and potassium in urine of rats after peroral administration of 28.9 uM/Kg of drug; format: ADME, organism-based; conditions: in vivo, po
[45] = system: Rattus norvegicus; assay: Total electrolytic excretion of potassium in urine of rats after peroral administration of 28.9 uM/Kg of drug; format: ADME, organism-based; conditions: in vivo, po
[46] = system: Canis familiaris; assay: Total electrolytic excretion of potassium in urine of dogs after intravenous administration of 52.4 uM/Kg of drug; format: ADME, organism-based, Canis lupus familiaris; conditions: dog, in vivo
[47] = system: Canis familiaris; assay: Ratio of mean of 5 hr urinary excretion of Na+ and K+ from dogs at 7.85 umol/kg (iv); format: ADME, organism-based, Canis lupus familiaris, Urine; conditions: dog, in vivo

Excretion Na+ [1]: 2.25 m equiv
V [2]: 7.3 mL
Excretion K+ [3]: 0.33 m equiv
Ratio [4]: 29.5
Excretion Na+ [5]: 1.13 m equiv
Excretion Cl- [6]: 0.86 m equiv
Excretion Na+ [7]: 0.77 m equiv
Excretion K+ [8]: 0.31 m equiv
V [9]: 13.8 mL
Excretion Cl- [10]: 1.94 m equiv
Excretion Cl- [11]: 1.14 m equiv
Ratio [12]: 5.4
V [13]: 5.4 mL
Ratio [14]: 3.6
Ratio [15]: 16.4
Excretion K+ [16]: 0.42 m equiv
Ratio [17]: 2.4
Structure (SMILES): c1ccc(C/N=C(/NCc2ccccc2)N2CCOCC2)cc1

Excretion K+ [18]: 0.24 m equiv
Ratio [19]: 12
Excretion K+ [20]: 1.4 m equiv
V [21]: 11.3 mL
V [22]: 197 mL
Excretion Na+ [23]: 1.86 m equiv
Excretion Na+ [24]: 8.4 m equiv
Excretion Na+ [25]: 1 m equiv
Excretion Cl- [26]: 1.54 m equiv
Excretion Cl- [27]: 7 m equiv
V [28]: 218 mL
Excretion Cl- [29]: 22.4 m equiv
V [30]: 62 mL
Excretion Cl- [31]: 28.8 m equiv
Ratio [32]: 7.9
Excretion Cl- [33]: 1.82 m equiv
Ratio [34]: 15.3
Excretion Na+ [35]: 27.9 m equiv
Excretion Cl- [36]: 0.97 m equiv
V [37]: 5.5 mL
Excretion Na+ [38]: 36 m equiv
Ratio [39]: 6.6
Excretion K+ [40]: 0.24 m equiv
Excretion K+ [41]: 2.3 m equiv
V [42]: 9.9 mL
Excretion Na+ [43]: 1.58 m equiv
Ratio [44]: 4.2
Excretion K+ [45]: 0.24 m equiv
Excretion K+ [46]: 3.3 m equiv
Ratio [47]: 8.8
Structure (SMILES): C1CCC(/N=C(\NC23CC4CC(CC(C4)C2)C3)N2CCOCC2)CC1
